Columns and labels:
[1] = target: dipeptidyl peptidase-IV (DPP-IV) (Homo sapiens, UniProt P27487); assay: In vitro proteolytic stability against DPP-IV; type: in vitro ADME; conditions: for half-life: isolated enzyme dpp iv, pH 7.4
[2] = In vitro stability on incubation with mouse serum; type: in vitro ADME; conditions: for half-life at 200 µM: mouse, serum

Sequence of dipeptidyl peptidase-IV (DPP-IV) (P27487 whole entry, species assumed): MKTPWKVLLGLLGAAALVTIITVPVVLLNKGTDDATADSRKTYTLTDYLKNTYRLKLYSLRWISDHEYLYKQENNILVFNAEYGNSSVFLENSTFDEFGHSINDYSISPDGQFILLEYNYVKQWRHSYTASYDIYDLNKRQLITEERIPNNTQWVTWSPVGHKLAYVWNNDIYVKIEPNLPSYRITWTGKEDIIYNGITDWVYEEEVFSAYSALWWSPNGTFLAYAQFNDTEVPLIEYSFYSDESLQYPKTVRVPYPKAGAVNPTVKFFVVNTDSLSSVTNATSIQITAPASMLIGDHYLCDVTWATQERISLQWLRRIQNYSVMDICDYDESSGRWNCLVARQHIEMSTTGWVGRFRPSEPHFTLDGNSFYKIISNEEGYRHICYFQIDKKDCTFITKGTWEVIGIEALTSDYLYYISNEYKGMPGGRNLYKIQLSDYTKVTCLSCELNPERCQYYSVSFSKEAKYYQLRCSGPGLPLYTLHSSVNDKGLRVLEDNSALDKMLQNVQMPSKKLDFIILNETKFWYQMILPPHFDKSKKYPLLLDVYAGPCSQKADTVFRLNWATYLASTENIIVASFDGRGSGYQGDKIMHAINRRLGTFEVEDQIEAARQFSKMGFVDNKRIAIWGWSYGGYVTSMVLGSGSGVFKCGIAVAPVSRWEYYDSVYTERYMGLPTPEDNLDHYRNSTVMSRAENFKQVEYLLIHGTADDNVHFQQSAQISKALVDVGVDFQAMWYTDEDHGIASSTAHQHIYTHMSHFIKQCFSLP

SMILES | half-life [1] [h] | half-life at 200 µM [2] [h] | Fold in vitro half-life relative to native GLP-1, DPP-IV incubation ([1]; ratio to native GLP-1 (10.2 min), DPP-IV, 37 °C) [fold] | Fold in vitro half-life relative to native GLP-1, serum incubation ([2]; ratio to native GLP-1 (55.7 min), mouse serum, 37 °C) [fold]
CC[C@H](C)[C@H](NC(=O)[C@H](Cc1ccccc1)NC(=O)[C@H](CCC(=O)O)NC(=O)[C@H](CCCCN)NC(=O)[C@H](C)NC(=O)[C@H](C)NC(=O)[C@H](CCC(N)=O)NC(=O)CNC(=O)[C@H](CCC(=O)O)NC(=O)[C@H](CC(C)C)NC(=O)[C@H](Cc1ccc(O)cc1)NC(=O)[C@H](CO)NC(=O)[C@H](CO)NC(=O)[C@@H](NC(=O)[C@H](CC(=O)N[C@@H]1O[C@H](CO)[C@@H](O[C@@H]2O[C@H](CO)[C@@H](O[C@@H]3O[C@H](CO[C@H]4O[C@H](CO)[C@@H](O)[C@H](O)[C@@H]4O[C@@H]4O[C@H](CO)[C@@H](O[C@@H]5O[C@H](CO[C@]6(C(=O)O)C[C@H](O)[C@@H](NC(C)=O)[C@H]([C@H](O)[C@H](O)CO)O6)[C@H](O)[C@H](O)[C@H]5O)[C@H](O)[C@H]4NC(C)=O)[C@@H](O)[C@H](O[C@H]4O[C@H](CO)[C@@H](O)[C@H](O)[C@@H]4O[C@@H]4O[C@H](CO)[C@@H](O[C@@H]5O[C@H](CO[C@]6(C(=O)O)C[C@H](O)[C@@H](NC(C)=O)[C@H]([C@H](O)[C@H](O)CO)O6)[C@H](O)[C@H](O)[C@H]5O)[C@H](O)[C@H]4NC(C)=O)[C@@H]3O)[C@H](O)[C@H]2NC(C)=O)[C@H](O)[C@H]1O)NC(=O)[C@H](CO)NC(=O)[C@@H](NC(=O)[C@H](Cc1ccccc1)NC(=O)[C@@H](NC(=O)CNC(=O)[C@H](CCC(=O)O)NC(=O)[C@H](C)NC(=O)[C@@H](N)Cc1c[nH]cn1)[C@@H](C)O)[C@@H](C)O)C(C)C)C(=O)N[C@@H](C)C(=O)N[C@@H](Cc1c[nH]c2ccccc12)C(=O)N[C@@H](CC(C)C)C(=O)N[C@H](C(=O)N[C@@H](CCCCN)C(=O)NCC(=O)N[C@@H](CCCNC(=N)N)C(=O)NCC(=O)O)C(C)C [Glycan-GLP-1-1(G2S2)] | 2.43 ± 0.0717 | 12.3 ± 0.205 |  | 
CC[C@H](C)[C@H](NC(=O)[C@H](CO)NC(=O)[C@H](CCC(=O)O)NC(=O)[C@H](CC(=O)N[C@@H]1O[C@H](CO)[C@@H](O[C@@H]2O[C@H](CO)[C@@H](O[C@@H]3O[C@H](CO[C@H]4O[C@H](CO)[C@@H](O)[C@H](O)[C@@H]4O[C@@H]4O[C@H](CO)[C@@H](O[C@@H]5O[C@H](CO[C@]6(C(=O)O)C[C@H](O)[C@@H](NC(C)=O)[C@H]([C@H](O)[C@H](O)CO)O6)[C@H](O)[C@H](O)[C@H]5O)[C@H](O)[C@H]4NC(C)=O)[C@@H](O)[C@H](O[C@H]4O[C@H](CO)[C@@H](O)[C@H](O)[C@@H]4O[C@@H]4O[C@H](CO)[C@@H](O[C@@H]5O[C@H](CO[C@]6(C(=O)O)C[C@H](O)[C@@H](NC(C)=O)[C@H]([C@H](O)[C@H](O)CO)O6)[C@H](O)[C@H](O)[C@H]5O)[C@H](O)[C@H]4NC(C)=O)[C@@H]3O)[C@H](O)[C@H]2NC(C)=O)[C@H](O)[C@H]1O)NC(=O)[C@H](C)NC(=O)[C@H](C)NC(=O)[C@H](CCC(N)=O)NC(=O)CNC(=O)[C@H](CCC(=O)O)NC(=O)[C@H](CC(C)C)NC(=O)[C@H](Cc1ccc(O)cc1)NC(=O)[C@H](CO)NC(=O)[C@H](CO)NC(=O)[C@@H](NC(=O)[C@H](CC(=O)O)NC(=O)[C@H](CO)NC(=O)[C@@H](NC(=O)[C@H](Cc1ccccc1)NC(=O)[C@@H](NC(=O)CNC(=O)[C@H](CCC(=O)O)NC(=O)[C@H](C)NC(=O)[C@@H](N)Cc1c[nH]cn1)[C@@H](C)O)[C@@H](C)O)C(C)C)C(=O)N[C@@H](C)C(=O)N[C@@H](Cc1c[nH]c2ccccc12)C(=O)N[C@@H](CC(C)C)C(=O)N[C@H](C(=O)N[C@@H](CCCCN)C(=O)NCC(=O)N[C@@H](CCCNC(=N)N)C(=O)NCC(=O)O)C(C)C [Glycan-GLP-1-3(G2S2)] | 6.245 ± 0.03 | 23.22 ± 0.148 | 36.7 | 25.0
CC[C@H](C)[C@H](NC(=O)[C@H](Cc1ccccc1)NC(=O)[C@H](CCC(=O)O)NC(=O)[C@H](CCCCN)NC(=O)[C@H](C)NC(=O)[C@H](C)NC(=O)[C@H](CCC(N)=O)NC(=O)CNC(=O)[C@H](CCC(=O)O)NC(=O)[C@H](CC(C)C)NC(=O)[C@H](Cc1ccc(O)cc1)NC(=O)[C@H](CO)NC(=O)[C@H](CO)NC(=O)[C@@H](NC(=O)[C@H](CC(=O)O)NC(=O)[C@H](CO)NC(=O)[C@@H](NC(=O)[C@H](Cc1ccccc1)NC(=O)[C@@H](NC(=O)CNC(=O)[C@H](CCC(=O)O)NC(=O)[C@H](C)NC(=O)[C@@H](N)Cc1c[nH]cn1)[C@@H](C)O)[C@@H](C)O)C(C)C)C(=O)N[C@@H](C)C(=O)N[C@@H](Cc1c[nH]c2ccccc12)C(=O)N[C@@H](CC(C)C)C(=O)N[C@H](C(=O)N[C@@H](CC(=O)N[C@@H]1O[C@H](CO)[C@@H](O[C@@H]2O[C@H](CO)[C@@H](O[C@@H]3O[C@H](CO[C@H]4O[C@H](CO)[C@@H](O)[C@H](O)[C@@H]4O[C@@H]4O[C@H](CO)[C@@H](O[C@@H]5O[C@H](CO)[C@H](O)[C@H](O)[C@H]5O)[C@H](O)[C@H]4NC(C)=O)[C@@H](O)[C@H](O[C@H]4O[C@H](CO)[C@@H](O)[C@H](O)[C@@H]4O[C@@H]4O[C@H](CO)[C@@H](O[C@@H]5O[C@H](CO)[C@H](O)[C@H](O)[C@H]5O)[C@H](O)[C@H]4NC(C)=O)[C@@H]3O)[C@H](O)[C@H]2NC(C)=O)[C@H](O)[C@H]1O)C(=O)NCC(=O)N[C@H](C(=O)NCC(=O)O)[C@@H](C)O)C(C)C [Glycan-GLP-1-5(G2)] | 3.0333 ± 0.00167 | 6.51 ± 0.225 |  | 
CC[C@H](C)[C@H](NC(=O)[C@H](Cc1ccccc1)NC(=O)[C@H](CCC(=O)O)NC(=O)[C@H](CCCCN)NC(=O)[C@H](C)NC(=O)[C@H](C)NC(=O)[C@H](CCC(N)=O)NC(=O)CNC(=O)[C@H](CCC(=O)O)NC(=O)[C@H](CC(C)C)NC(=O)[C@H](Cc1ccc(O)cc1)NC(=O)[C@H](CO)NC(=O)[C@H](CO)NC(=O)[C@@H](NC(=O)[C@H](CC(=O)N[C@@H]1O[C@H](CO)[C@@H](O[C@@H]2O[C@H](CO)[C@@H](O[C@@H]3O[C@H](CO[C@H]4O[C@H](CO)[C@@H](O)[C@H](O)[C@@H]4O[C@@H]4O[C@H](CO)[C@@H](O[C@@H]5O[C@H](CO)[C@H](O)[C@H](O)[C@H]5O)[C@H](O)[C@H]4NC(C)=O)[C@@H](O)[C@H](O[C@H]4O[C@H](CO)[C@@H](O)[C@H](O)[C@@H]4O[C@@H]4O[C@H](CO)[C@@H](O[C@@H]5O[C@H](CO)[C@H](O)[C@H](O)[C@H]5O)[C@H](O)[C@H]4NC(C)=O)[C@@H]3O)[C@H](O)[C@H]2NC(C)=O)[C@H](O)[C@H]1O)NC(=O)[C@H](CO)NC(=O)[C@@H](NC(=O)[C@H](Cc1ccccc1)NC(=O)[C@@H](NC(=O)CNC(=O)[C@H](CCC(=O)O)NC(=O)[C@H](C)NC(=O)[C@@H](N)Cc1c[nH]cn1)[C@@H](C)O)[C@@H](C)O)C(C)C)C(=O)N[C@@H](C)C(=O)N[C@@H](Cc1c[nH]c2ccccc12)C(=O)N[C@@H](CC(C)C)C(=O)N[C@H](C(=O)N[C@@H](CCCCN)C(=O)NCC(=O)N[C@@H](CCCNC(=N)N)C(=O)NCC(=O)O)C(C)C [Glycan-GLP-1-1(G2)] | 0.818 ± 0.095 | 5.92 ± 0.155 |  | 

From paper PMC9639207 (RSC Advances, 2022)
